This test relates to diabetic B6 mice (streptozocin). Put plainly: Glucose challenge in STZ diabetic mice. The format is in vivo. The following applies: injected subcutaneously or intraperitoneally, glucose challenge one hour post-injection. As to the method:
Diabetes was induced in 12-week-old B6 mice using streptozocin (STZ) treatment. Three weeks after the final STZ treatment, blood glucose of the mice was sampled from lateral tail vein to confirm diabetes. Mice with blood glucose of >200 mg/dl were deemed to be diabetic and fasted for 1-6 hours prior to injection. Human insulin and a compound of Formula I in sterile phosphate buffered saline, pH 7.4 were injected either subcutaneously via neck scruff or intraperitoneally, depending on the experiment. Blood glucose was sampled with a glucometer via lateral tail vein at 15-minute intervals. After one hour of initial stabilization of blood glucose levels post-insulin injection, mice were challenged with an intraperitoneal injection of glucose (e.g., 2 g/kg, 4 g/kg, or 6 g/kg; the actual dose depends on the example and experiment) in sterile phosphate buffered saline.

Take “human insulin: Human insulin, comparator in the mouse experiments; biosynthetic human insulin (BHI) in the clamp”: the “Blood glucose response after intraperitoneal glucose bolus” value is “did not activate in a glucose-dependent manner”.

Source of the values: US20240374735A1, “AROMATIC BORON-CONTAINING COMPOUNDS AND INSULIN ANALOGS” (PROTOMER TECHNOLOGIES INC., priority 2020, published 2024).
